In article PMC7366380, “Discovery of a Potent and Selective Covalent Inhibitor and Activity-Based Probe for the Deubiquitylating Enzyme UCHL1, with Antifibrotic Activity” (Journal of the American Chemical Society, 2020):
“And” between values parts separate entries of the source, which are not always exact repeats. Equal entries are not always repeated.

Experiments:
Experiment in all cases: In-cell proteome-wide competitive ABPP, HEK293: other DUBs and proteins
[1] = biological target: DUBs and other proteins in HEK293 cells (Homo sapiens, UniProt Q9UPU5); conditions: replicates A-C; for Log2 reporter intensity values: USP24: competition with ABP 2, DMSO substract (FC); for Log2 reporter intensity values: USP24, DMSO subtracted
Chain of DUBs and other proteins in HEK293 cells (Homo sapiens, UniProt Q9UPU5) (Q9UPU5 whole entry): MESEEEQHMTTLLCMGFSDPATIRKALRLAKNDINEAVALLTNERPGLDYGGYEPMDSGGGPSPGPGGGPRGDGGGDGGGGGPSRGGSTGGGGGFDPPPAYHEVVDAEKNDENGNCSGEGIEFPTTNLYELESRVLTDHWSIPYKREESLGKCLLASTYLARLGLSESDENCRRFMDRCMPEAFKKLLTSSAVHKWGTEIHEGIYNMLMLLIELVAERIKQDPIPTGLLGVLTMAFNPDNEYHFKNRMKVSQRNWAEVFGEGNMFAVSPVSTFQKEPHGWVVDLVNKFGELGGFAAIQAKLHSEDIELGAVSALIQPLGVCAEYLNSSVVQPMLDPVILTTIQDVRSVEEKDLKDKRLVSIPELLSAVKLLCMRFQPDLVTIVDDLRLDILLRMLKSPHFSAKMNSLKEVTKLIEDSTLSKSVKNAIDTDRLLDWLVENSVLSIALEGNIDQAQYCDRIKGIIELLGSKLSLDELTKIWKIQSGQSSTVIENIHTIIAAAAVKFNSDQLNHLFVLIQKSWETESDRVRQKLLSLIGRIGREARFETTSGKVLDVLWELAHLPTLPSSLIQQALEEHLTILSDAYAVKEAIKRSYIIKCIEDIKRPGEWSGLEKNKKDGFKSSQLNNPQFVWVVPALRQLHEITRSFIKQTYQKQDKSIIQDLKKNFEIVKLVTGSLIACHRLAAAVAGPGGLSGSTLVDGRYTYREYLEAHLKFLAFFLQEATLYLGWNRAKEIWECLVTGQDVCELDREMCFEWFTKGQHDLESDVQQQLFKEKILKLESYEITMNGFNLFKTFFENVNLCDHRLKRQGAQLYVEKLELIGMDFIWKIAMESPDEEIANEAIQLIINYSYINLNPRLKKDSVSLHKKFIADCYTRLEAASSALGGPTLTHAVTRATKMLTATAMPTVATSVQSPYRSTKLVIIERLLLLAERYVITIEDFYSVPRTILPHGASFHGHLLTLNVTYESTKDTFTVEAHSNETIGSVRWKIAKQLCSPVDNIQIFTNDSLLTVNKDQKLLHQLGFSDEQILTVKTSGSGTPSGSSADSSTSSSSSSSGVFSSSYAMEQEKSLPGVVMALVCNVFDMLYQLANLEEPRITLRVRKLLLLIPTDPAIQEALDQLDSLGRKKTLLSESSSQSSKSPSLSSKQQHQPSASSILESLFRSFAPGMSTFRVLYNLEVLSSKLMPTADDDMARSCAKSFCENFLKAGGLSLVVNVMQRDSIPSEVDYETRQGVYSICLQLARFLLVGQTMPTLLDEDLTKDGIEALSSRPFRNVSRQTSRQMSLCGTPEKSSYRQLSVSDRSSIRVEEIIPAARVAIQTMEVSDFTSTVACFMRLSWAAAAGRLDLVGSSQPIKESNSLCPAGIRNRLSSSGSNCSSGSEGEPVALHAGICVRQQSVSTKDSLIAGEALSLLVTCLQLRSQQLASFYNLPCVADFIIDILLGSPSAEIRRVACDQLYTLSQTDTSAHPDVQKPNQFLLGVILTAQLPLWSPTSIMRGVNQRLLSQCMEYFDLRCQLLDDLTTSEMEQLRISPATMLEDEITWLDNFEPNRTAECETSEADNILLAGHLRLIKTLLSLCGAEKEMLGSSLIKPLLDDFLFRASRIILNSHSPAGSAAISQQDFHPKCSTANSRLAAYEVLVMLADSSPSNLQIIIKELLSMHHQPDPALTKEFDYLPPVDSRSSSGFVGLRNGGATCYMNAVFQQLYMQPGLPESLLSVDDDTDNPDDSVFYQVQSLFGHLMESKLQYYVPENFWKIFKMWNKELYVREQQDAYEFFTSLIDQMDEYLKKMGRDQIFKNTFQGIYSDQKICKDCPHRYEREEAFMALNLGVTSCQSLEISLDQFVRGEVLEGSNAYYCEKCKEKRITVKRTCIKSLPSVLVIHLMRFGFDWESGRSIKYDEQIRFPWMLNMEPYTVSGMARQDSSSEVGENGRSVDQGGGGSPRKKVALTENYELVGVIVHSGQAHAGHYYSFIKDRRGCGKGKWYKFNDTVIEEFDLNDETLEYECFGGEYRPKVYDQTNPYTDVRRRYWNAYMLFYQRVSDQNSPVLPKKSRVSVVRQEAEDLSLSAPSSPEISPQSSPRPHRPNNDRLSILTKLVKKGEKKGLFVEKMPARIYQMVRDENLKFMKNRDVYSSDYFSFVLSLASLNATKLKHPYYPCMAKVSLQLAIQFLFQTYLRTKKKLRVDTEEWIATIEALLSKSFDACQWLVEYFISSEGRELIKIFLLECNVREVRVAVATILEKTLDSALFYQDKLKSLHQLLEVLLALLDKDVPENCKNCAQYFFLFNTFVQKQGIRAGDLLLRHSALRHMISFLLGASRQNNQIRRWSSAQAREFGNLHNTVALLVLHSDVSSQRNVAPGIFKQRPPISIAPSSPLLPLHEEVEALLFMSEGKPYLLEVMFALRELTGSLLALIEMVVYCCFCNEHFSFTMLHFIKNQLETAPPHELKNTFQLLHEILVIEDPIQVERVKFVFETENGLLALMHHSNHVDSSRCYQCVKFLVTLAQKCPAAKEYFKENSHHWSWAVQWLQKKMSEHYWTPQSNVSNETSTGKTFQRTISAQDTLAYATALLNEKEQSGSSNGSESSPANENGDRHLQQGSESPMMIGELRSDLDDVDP

[2] = biological target: T1, DUBs and other proteins in HEK293 cells (Homo sapiens, UniProt P45974); conditions: replicates A-C; for Log2 reporter intensity values: USP5: competition with ABP 2, DMSO substract (FC); for Log2 reporter intensity values: USP5, DMSO subtracted
T1 sequence (P45974 1-858): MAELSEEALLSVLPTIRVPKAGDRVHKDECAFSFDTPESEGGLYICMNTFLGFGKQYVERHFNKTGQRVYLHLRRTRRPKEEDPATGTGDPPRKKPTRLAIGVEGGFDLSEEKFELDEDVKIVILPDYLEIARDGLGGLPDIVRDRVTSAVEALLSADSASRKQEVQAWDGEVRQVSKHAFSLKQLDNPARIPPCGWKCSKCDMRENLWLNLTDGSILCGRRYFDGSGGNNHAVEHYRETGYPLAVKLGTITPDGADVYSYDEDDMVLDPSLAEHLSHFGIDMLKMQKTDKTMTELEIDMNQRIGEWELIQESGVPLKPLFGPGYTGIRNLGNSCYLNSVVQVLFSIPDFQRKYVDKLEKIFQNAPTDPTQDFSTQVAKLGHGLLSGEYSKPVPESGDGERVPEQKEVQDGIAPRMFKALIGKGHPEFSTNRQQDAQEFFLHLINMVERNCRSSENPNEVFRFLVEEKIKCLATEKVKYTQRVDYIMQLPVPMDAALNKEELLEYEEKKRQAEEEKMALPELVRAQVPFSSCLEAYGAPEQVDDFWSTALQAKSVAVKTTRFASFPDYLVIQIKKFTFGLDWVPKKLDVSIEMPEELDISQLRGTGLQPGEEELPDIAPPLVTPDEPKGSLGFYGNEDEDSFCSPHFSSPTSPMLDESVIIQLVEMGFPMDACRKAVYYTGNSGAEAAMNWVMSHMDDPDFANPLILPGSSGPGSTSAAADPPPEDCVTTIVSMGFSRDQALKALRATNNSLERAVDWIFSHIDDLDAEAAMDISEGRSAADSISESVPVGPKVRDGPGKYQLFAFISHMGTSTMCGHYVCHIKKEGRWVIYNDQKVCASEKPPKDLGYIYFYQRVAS

[3] = biological target: DUBs and other proteins in HEK293 cells (Homo sapiens, UniProt Q93009); conditions: replicates A-C; for Log2 reporter intensity values: USP7: competition with ABP 2, DMSO substract (FC); for Log2 reporter intensity values: USP7, DMSO subtracted
Chain of DUBs and other proteins in HEK293 cells (Homo sapiens, UniProt Q93009) (Q93009 whole entry): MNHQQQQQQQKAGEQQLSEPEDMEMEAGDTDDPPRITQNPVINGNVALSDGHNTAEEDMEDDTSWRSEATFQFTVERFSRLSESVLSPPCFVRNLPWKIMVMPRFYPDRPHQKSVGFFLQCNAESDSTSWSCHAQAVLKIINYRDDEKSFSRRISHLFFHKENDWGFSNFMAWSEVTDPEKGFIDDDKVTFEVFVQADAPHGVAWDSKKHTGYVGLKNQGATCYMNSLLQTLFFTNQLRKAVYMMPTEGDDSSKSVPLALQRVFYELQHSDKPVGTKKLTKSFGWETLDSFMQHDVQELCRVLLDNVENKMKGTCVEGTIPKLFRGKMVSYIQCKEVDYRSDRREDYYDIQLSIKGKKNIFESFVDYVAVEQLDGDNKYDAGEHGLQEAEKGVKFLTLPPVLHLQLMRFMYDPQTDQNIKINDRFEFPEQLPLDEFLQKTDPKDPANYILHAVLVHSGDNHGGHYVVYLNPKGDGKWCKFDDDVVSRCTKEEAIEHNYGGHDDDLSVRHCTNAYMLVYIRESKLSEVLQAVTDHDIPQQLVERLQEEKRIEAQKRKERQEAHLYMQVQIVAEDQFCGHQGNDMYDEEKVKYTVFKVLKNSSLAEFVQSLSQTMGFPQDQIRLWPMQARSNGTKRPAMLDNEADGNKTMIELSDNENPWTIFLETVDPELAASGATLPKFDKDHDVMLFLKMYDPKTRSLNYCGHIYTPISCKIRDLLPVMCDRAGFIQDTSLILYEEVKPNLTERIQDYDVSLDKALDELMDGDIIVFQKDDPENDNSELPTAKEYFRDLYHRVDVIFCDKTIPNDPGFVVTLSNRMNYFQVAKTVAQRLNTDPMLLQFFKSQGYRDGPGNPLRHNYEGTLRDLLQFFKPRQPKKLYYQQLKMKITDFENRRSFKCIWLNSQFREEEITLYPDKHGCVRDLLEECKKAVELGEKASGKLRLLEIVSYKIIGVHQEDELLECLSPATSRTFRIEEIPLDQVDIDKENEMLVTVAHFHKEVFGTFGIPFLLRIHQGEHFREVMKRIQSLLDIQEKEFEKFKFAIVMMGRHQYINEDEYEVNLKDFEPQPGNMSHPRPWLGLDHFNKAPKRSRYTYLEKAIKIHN

[4] = biological target: DUBs and other proteins in HEK293 cells (Homo sapiens, UniProt P51784); conditions: replicates A-C; for Log2 reporter intensity values: USP11: competition with ABP 2, DMSO substract (FC); for Log2 reporter intensity values: USP11, DMSO subtracted
Chain of DUBs and other proteins in HEK293 cells (Homo sapiens, UniProt P51784) (P51784 whole entry): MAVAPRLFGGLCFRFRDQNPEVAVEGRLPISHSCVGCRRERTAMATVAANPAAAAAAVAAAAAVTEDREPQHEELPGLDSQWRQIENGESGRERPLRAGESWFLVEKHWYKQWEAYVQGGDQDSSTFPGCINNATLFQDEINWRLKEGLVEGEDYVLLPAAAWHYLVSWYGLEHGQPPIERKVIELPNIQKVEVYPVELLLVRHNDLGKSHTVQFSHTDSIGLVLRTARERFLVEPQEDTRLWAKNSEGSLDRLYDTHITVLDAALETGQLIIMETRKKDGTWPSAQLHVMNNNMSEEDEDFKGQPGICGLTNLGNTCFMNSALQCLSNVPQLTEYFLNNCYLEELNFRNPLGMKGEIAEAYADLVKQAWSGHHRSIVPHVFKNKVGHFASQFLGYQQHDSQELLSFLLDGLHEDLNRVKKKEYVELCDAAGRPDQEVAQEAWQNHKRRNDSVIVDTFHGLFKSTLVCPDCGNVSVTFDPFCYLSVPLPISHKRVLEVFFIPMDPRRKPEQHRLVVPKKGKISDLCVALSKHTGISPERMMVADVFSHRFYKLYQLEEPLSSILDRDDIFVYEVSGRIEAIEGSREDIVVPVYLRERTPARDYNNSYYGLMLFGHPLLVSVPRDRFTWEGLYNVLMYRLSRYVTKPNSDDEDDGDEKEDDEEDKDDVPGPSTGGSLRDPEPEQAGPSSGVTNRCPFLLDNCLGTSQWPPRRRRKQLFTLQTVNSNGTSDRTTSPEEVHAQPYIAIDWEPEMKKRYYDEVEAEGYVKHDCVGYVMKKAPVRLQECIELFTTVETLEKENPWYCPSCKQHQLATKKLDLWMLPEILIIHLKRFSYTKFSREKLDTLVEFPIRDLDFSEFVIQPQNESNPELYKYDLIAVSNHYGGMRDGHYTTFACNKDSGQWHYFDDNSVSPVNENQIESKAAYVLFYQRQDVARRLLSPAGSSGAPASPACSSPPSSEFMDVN

[5] = biological target: T2, DUBs and other proteins in HEK293 cells (Homo sapiens, UniProt Q53GS9); conditions: replicates A-C; for Log2 reporter intensity values: USP39: competition with ABP 2, DMSO substract (FC); for Log2 reporter intensity values: USP39, DMSO subtracted
T2 sequence (Q53GS9 1-565): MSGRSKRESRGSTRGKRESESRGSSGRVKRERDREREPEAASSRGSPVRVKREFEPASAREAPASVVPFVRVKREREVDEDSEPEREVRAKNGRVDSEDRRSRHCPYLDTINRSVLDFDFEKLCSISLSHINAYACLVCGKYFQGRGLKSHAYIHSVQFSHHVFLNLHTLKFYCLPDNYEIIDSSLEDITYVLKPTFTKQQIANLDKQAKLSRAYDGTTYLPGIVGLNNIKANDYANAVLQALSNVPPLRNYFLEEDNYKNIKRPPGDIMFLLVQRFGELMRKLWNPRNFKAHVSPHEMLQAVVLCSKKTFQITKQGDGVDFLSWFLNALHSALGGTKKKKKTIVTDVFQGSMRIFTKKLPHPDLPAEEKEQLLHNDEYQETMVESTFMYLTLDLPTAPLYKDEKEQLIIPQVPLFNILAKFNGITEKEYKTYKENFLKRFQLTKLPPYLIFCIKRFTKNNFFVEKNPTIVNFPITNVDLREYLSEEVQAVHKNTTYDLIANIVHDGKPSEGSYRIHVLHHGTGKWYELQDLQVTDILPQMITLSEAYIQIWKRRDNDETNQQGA

[6] = biological target: DUBs and other proteins in HEK293 cells (Homo sapiens, UniProt Q96FW1); conditions: replicates A-C; for Log2 reporter intensity values: OTUB1: competition with ABP 2, DMSO substract (FC); for Log2 reporter intensity values: OTUB1, DMSO subtracted
[7] = biological target: DUBs and other proteins in HEK293 cells (Homo sapiens, UniProt O15372); conditions: for Log2 reporter intensity values, EIF3H: TMT replicates; for Log2 reporter intensity values: EIF3H: competition with ABP 2, DMSO substract (FC); for Log2 reporter intensity values: EIF3H / Log2 reporter intensity values: replicates A-C; for Log2 t-test Difference / Log2 reporter intensity values: EIF3H
Chain of DUBs and other proteins in HEK293 cells (Homo sapiens, UniProt O15372) (O15372 whole entry): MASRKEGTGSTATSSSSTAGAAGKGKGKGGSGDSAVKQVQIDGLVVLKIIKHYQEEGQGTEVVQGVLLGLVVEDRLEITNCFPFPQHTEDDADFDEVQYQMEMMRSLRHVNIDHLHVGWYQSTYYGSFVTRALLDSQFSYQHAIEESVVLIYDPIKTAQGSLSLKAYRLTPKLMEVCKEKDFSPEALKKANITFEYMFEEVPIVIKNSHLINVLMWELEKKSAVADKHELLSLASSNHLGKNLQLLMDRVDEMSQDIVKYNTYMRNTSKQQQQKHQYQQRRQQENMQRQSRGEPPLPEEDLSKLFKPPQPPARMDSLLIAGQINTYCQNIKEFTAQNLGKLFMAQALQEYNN

## N#CN1CCC[C@H]1C(=O)N1CCc2c(-c3c[nH]c4ncccc34)cccc21 [Compound 1]
[1]; 1 at 1 μM
  Log2 reporter intensity values: USP24: 1.001 and 1.09 and 1.248
  Log2 reporter intensity values: 0.00188 and 0.1247 and 0.3193
[1]; 1 at 4 μM
  Log2 reporter intensity values: USP24: 0.9741 and 0.9874 and 0.9877
  Log2 reporter intensity values: -0.0379 and -0.01836 and -0.01793
[1]; 1_1 μM
  Log2 reporter intensity values: -0.002058 and 0.08693 and 0.2444
[1]; 1_4 μM
  Log2 reporter intensity values: -0.02929 and -0.01601 and -0.01571
[2]; 1 at 1 μM
  Log2 reporter intensity values: USP5: 0.9731 and 0.9825 and 0.9558
  Log2 reporter intensity values: -0.03934 and -0.0255 and -0.06525
[2]; 1 at 4 μM
  Log2 reporter intensity values: USP5: 0.9723 and 0.9393 and 0.9714
  Log2 reporter intensity values: -0.04051 and -0.09041 and -0.04193
[2]; 1_1 μM
  Log2 reporter intensity values: -0.02722 and -0.01785 and -0.04454
[2]; 1_4 μM
  Log2 reporter intensity values: -0.02801 and -0.06107 and -0.02897
[3]; 1 at 1 μM
  Log2 reporter intensity values: USP7: 1.015 and 0.998 and 1.012
  Log2 reporter intensity values: 0.02137 and -0.002902 and 0.01712
[3]; 1 at 4 μM
  Log2 reporter intensity values: USP7: 1.024 and 0.9908 and 1.009
  Log2 reporter intensity values: 0.03415 and -0.01333 and 0.01322
[3]; 1_1 μM
  Log2 reporter intensity values: 0.01464 and -0.002291 and 0.01166
[3]; 1_4 μM
  Log2 reporter intensity values: 0.02367 and -0.009481 and 0.008925
[4]; 1 at 1 μM
  Log2 reporter intensity values: USP11: 1.082 and 1.001 and 1.048
  Log2 reporter intensity values: 0.1136 and 0.00189 and 0.06764
[4]; 1 at 4 μM
  Log2 reporter intensity values: USP11: 1.053 and 0.9981 and 1.068
  Log2 reporter intensity values: 0.07493 and -0.002761 and 0.09472
[4]; 1_1 μM
  Log2 reporter intensity values: 0.08158 and 0.0009743 and 0.04766
[4]; 1_4 μM
  Log2 reporter intensity values: 0.05297 and -0.002249 and 0.06752
[5]; 1 at 1 μM
  Log2 reporter intensity values: USP39: 1.016 and 0.9671 and 0.9953
  Log2 reporter intensity values: 0.02338 and -0.04824 and -0.006739
[5]; 1 at 4 μM
  Log2 reporter intensity values: USP39: 1.053 and 0.9437 and 0.9559
  Log2 reporter intensity values: 0.0748 and -0.08363 and -0.065
[5]; 1_1 μM
  Log2 reporter intensity values: 0.01573 and -0.03349 and -0.00527
[5]; 1_4 μM
  Log2 reporter intensity values: 0.0526 and -0.05693 and -0.04466
[6]; 1 at 1 μM
  Log2 reporter intensity values: OTUB1: 1.079 and 1.058 and 1.055
  Log2 reporter intensity values: 0.1099 and 0.08068 and 0.07687
[6]; 1 at 4 μM
  Log2 reporter intensity values: OTUB1: 0.9564 and 0.9957 and 1.033
  Log2 reporter intensity values: -0.06433 and -0.00624 and 0.04749
[6]; 1_1 μM
  Log2 reporter intensity values: 0.07905 and 0.05739 and 0.05461
[6]; 1_4 μM
  Log2 reporter intensity values: -0.04373 and -0.004436 and 0.03334
[7]; 1 μM 1 (60 min) + 20 nM ABP 2 (10 min), All values
  Log2 reporter intensity values, EIF3H: -0.09256 and -0.05547 and -0.03085
[7]; 1 μM 1 (60 min) + 20 nM ABP 2 (10 min), DMSO subtracted
  Log2 reporter intensity values, EIF3H: -0.1222 and -0.08506 and -0.06044
[7]; 4 μM 1 (60 min) + 20 nM ABP 2 (10 min), All values
  Log2 reporter intensity values, EIF3H: -0.07138 and -0.1308 and -0.1362
[7]; 4 μM 1 (60 min) + 20 nM ABP 2 (10 min), DMSO subtracted
  Log2 reporter intensity values, EIF3H: -0.101 and -0.1603 and -0.1658
[7]; 1 at 1 μM
  Log2 reporter intensity values: EIF3H: 0.9188 and 0.9427 and 0.959
[7]; 1 at 4 μM
  Log2 reporter intensity values: EIF3H: 0.9324 and 0.8948 and 0.8914
[7]; 1 - 1 μM
  Log2 t-test Difference: -0.08557
[7]; 1 - 4 μM
  Log2 t-test Difference: -0.1387
[7]; 1_1 μM, DMSO subtracted
  Log2 reporter intensity values: -0.08133 and -0.0574 and -0.04117
[7]; 1_4 μM, DMSO subtracted
  Log2 reporter intensity values: -0.06774 and -0.1053 and -0.1087
[7]; 1 at 1 μM, DMSO subtracted
  Log2 reporter intensity values: -0.1222 and -0.08506 and -0.06044
[7]; 1 at 4 μM, DMSO subtracted
  Log2 reporter intensity values: -0.101 and -0.1603 and -0.1658
